Structures are written as SMILES.

Chain of human GluN1/GluN2B NMDA receptors (Q13224 27-1484, other chains not shown): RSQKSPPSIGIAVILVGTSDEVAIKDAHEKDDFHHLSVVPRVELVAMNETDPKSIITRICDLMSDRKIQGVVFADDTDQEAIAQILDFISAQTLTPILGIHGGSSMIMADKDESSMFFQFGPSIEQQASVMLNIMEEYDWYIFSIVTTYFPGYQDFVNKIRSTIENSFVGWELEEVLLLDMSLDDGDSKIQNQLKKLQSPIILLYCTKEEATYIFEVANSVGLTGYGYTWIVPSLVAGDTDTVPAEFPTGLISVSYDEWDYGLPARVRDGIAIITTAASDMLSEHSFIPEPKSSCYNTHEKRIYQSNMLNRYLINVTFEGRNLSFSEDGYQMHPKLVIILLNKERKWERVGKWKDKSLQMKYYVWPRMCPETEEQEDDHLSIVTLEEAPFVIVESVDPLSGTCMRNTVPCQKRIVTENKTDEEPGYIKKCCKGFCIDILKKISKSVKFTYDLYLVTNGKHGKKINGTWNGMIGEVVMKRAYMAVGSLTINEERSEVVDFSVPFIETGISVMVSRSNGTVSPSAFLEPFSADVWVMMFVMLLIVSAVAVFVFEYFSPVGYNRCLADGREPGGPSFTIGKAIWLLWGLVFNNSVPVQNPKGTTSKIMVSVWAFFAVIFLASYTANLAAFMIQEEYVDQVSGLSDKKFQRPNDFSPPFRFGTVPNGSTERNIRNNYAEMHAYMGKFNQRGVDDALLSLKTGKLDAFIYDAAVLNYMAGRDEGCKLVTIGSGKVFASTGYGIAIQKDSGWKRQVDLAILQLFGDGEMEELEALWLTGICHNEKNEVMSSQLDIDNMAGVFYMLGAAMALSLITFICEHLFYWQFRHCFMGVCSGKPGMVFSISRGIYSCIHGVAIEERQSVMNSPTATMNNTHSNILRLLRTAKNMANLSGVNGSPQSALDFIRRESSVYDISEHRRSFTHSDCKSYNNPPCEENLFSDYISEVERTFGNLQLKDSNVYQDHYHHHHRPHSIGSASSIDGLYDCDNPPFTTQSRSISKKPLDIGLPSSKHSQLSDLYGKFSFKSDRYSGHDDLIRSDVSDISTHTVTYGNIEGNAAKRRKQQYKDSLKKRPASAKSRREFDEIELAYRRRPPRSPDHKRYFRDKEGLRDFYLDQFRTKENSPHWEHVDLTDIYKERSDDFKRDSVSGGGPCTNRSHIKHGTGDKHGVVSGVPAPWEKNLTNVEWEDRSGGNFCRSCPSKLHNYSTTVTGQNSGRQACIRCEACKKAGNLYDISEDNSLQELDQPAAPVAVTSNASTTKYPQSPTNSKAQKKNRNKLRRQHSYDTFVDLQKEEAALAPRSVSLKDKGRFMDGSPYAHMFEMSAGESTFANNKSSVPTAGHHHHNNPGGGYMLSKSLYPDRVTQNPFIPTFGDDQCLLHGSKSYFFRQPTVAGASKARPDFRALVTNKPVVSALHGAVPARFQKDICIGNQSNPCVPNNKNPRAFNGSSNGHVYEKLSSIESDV

The first assay concerns the target human GluN1/GluN2B NMDA receptors (Homo sapiens, UniProt Q05586+Q13224). The assay can be described thus: Cell-based calcium flux (FLIPR) assay on cloned human NR1/NR2B ion channels expressed in mammalian cells. Particulars: standard assay; glutamate at ~EC80; FLIPR calcium flux. The method, boiled down:
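Calcium influx followed by FLIPR fluorescence after 5 min compound exposure and a further 5 min co-agonist challenge: 10 μM glycine with glutamate at ~EC80 (standard) or EC40 (HTS).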
A general note: Calcium assays in cells follow changes in intracellular calcium, usually with a dye or a luminescent sensor.
Take `FC1CN(c2cnc(OCc3cn(-c4ccc(Cl)c(OC(F)F)c4)nn3)nc2)C1` [Example 392, 2-((1-(4-Chloro-3-(difluoromethoxy)phenyl)-1H-1,2,3-triazol-4-yl)methoxy)-5-(3-fluoroazetidin-1-yl)pyrimidine]: the IC50 amounted to 0.017 µM.

As to `FC(F)Oc1cc(-n2cc(COc3ncc(N4CC(F)(F)C4)cn3)nn2)ccc1Cl` [Example 393, 2-((1-(4-Chloro-3-(difluoromethoxy)phenyl)-1H-1,2,3-triazol-4-yl)methoxy)-5-(3,3-difluoroazetidin-1-yl)pyrimidine], the 50% inhibitory concentration (IC50) was found to be 0.037 µM.

In the case of `Fc1cccc(OCc2cn(-c3ccc(Cl)c(OC(F)F)c3)nn2)n1` [Example 394, 2-[[1-[4-Chloro-3-(difluoromethoxy)phenyl]triazol-4-yl]methoxy]-6-fluoro-pyridine], the concentration for half-maximal inhibition (IC50) worked out at 0.437 µM.

As for `Fc1ccc(-n2cc(COc3cccc(C(F)(F)F)n3)nn2)cc1OC(F)F` [Example 395, 2-[[1-[3-(Difluoromethoxy)-4-fluoro-phenyl]triazol-4-yl]methoxy]-6-(trifluoromethyl)pyridine], the IC50 stood at 0.919 µM.

Turning to `Cc1cnc(OCc2cn(-c3ccc(F)c(OC(F)F)c3)nn2)cn1` [Example 396, 2-[[1-[3-(Difluoromethoxy)-4-fluoro-phenyl]triazol-4-yl]methoxy]-5-methyl-pyrazine], the IC50 was 0.647 µM.

For the compound `Fc1ccc(-n2cc(COc3cnc(-c4cccs4)cn3)nn2)cc1OC(F)F` [Example 397, 2-[[1-[3-(Difluoromethoxy)-4-fluoro-phenyl]triazol-4-yl]methoxy]-5-(2-thienyl)pyrazine], the IC50 stood at 10.7 µM.

Regarding `COCc1ccnc(OCc2cn(-c3ccc(F)c(C(F)F)c3)nn2)n1` [Example 399, 2-[[1-[3-(Difluoromethyl)-4-fluoro-phenyl]triazol-4-yl]methoxy]-4-(methoxymethyl)pyrimidine], the half-maximal inhibitory concentration (IC50) was determined as 0.023 µM.

For the compound `OCc1ccnc(OCc2cn(-c3ccc(F)c(C(F)F)c3)nn2)n1` [Example 400, [2-[[1-[3-(Difluoromethyl)-4-fluoro-phenyl]triazol-4-yl]methoxy]pyrimidin-4-yl]methanol], the half-inhibitory concentration (IC50) amounted to 0.036 µM.

As for `CC(C)(O)c1cnc(OCc2cn(-c3ccc(F)c(C(F)F)c3)nn2)nc1` [Example 401, 2-[2-[[1-[3-(Difluoromethyl)-4-fluoro-phenyl]triazol-4-yl]methoxy]pyrimidin-5-yl]propan-2-ol], the half-inhibitory concentration (IC50) came to 0.017 µM.

As to `Fc1ccc(-n2cc(COc3nccc(C(F)F)n3)nn2)cc1C(F)F` [Example 402, 4-(Difluoromethyl)-2-[[1-[3-(difluoromethyl)-4-fluoro-phenyl]triazol-4-yl]methoxy]pyrimidine], the IC50 is 0.051 µM.

Turning to `Fc1ccc(-n2cc(COc3nccc(C(F)(F)F)n3)nn2)cc1C(F)F` [Example 403, 2-[[1-[3-(Difluoromethyl)-4-fluoro-phenyl]triazol-4-yl]methoxy]-4-(trifluoromethyl)pyrimidine], the half-maximal inhibitory concentration (IC50) was determined as 0.199 µM.

Take `CNC(=O)c1cnc(OCc2cn(-c3ccc(F)c(C(F)F)c3)nn2)nc1` [Example 409, 2-[[1-[3-(Difluoromethyl)-4-fluoro-phenyl]triazol-4-yl]methoxy]-N-methyl-pyrimidine-5-carboxamide]: the concentration for half-maximal inhibition (IC50) amounted to 0.149 µM.

For the compound `CN(C)C(=O)c1ccnc(OCc2cn(-c3ccc(F)c(C(F)F)c3)nn2)n1` [Example 410, 2-[[1-[3-(Difluoromethyl)-4-fluoro-phenyl]triazol-4-yl]methoxy]-N,N-dimethyl-pyrimidine-4-carboxamide], the half-maximal inhibitory concentration (IC50) was above 2.99 µM.

Regarding `COc1nc(OCc2cn(-c3ccc(F)c(C(F)F)c3)nn2)ncc1C` [Example 411, 2-[[1-[3-(Difluoromethyl)-4-fluoro-phenyl]triazol-4-yl]methoxy]-4-methoxy-5-methyl-pyrimidine], the IC50 came to 0.021 µM.

Regarding `Nc1ccnc(OCc2cn(-c3ccc(F)c(C(F)F)c3)nn2)n1` [Example 412, 2-[[1-[3-(Difluoromethyl)-4-fluoro-phenyl]triazol-4-yl]methoxy]pyrimidin-4-amine], the half-maximal inhibitory concentration (IC50) was determined as 0.124 µM.

As for `CNc1ccnc(OCc2cn(-c3ccc(F)c(C(F)F)c3)nn2)n1` [Example 413, 2-[[1-[3-(Difluoromethyl)-4-fluoro-phenyl]triazol-4-yl]methoxy]-N-methyl-pyrimidin-4-amine], the half-maximal inhibitory concentration (IC50) amounted to 0.015 µM.

As to `CNc1nc(OCc2cn(-c3ccc(F)c(C(F)F)c3)nn2)ncc1F` [Example 414, 2-[[1-[3-(Difluoromethyl)-4-fluoro-phenyl]triazol-4-yl]methoxy]-5-fluoro-N-methyl-pyrimidin-4-amine], the IC50 was determined as 0.122 µM.

For `CN(C)c1ccnc(OCc2cn(-c3ccc(F)c(C(F)F)c3)nn2)n1` [Example 415, 2-[[1-[3-(Difluoromethyl)-4-fluoro-phenyl]triazol-4-yl]methoxy]-N,N-dimethyl-pyrimidin-4-amine], the IC50 stood at 0.008 µM.

Consider `Fc1ccc(-n2cc(COc3ncc(N4CC(F)C4)cn3)nn2)cc1C(F)F` [Example 416, 2-((1-(3-(Difluoromethyl)-4-fluorophenyl)-1H-1,2,3-triazol-4-yl)methoxy)-5-(3-fluoroazetidin-1-yl)pyrimidine], for which the IC50 amounted to 0.01 µM.

With `Fc1ccc(-n2cc(COc3ncc(N4CCC4)cn3)nn2)cc1C(F)F` [Example 417, 5-(Azetidin-1-yl)-2-((1-(3-(difluoromethyl)-4-fluorophenyl)-1H-1,2,3-triazol-4-yl)methoxy)pyrimidine], the concentration for half-maximal inhibition (IC50) worked out at 0.006 µM.

For the compound `COC1CN(c2cnc(OCc3cn(-c4ccc(F)c(C(F)F)c4)nn3)nc2)C1` [Example 418, 2-((1-(3-(Difluoromethyl)-4-fluorophenyl)-1H-1,2,3-triazol-4-yl)methoxy)-5-(3-methoxyazetidin-1-yl)pyrimidine], the half-inhibitory concentration (IC50) amounted to 0.271 µM.

As to `Fc1ccc(-n2cc(COc3ncc(N4CC(F)(F)C4)cn3)nn2)cc1C(F)F` [Example 419, 5-(3,3-Difluoroazetidin-1-yl)-2-((1-(3-(difluoromethyl)-4-fluorophenyl)-1H-1,2,3-triazol-4-yl)methoxy)pyrimidine], the half-inhibitory concentration (IC50) amounted to 0.029 µM.

As to `CC1(F)CN(c2cnc(OCc3cn(-c4ccc(F)c(C(F)F)c4)nn3)nc2)C1` [Example 420, 2-((1-(3-(Difluoromethyl)-4-fluorophenyl)-1H-1,2,3-triazol-4-yl)methoxy)-5-(3-fluoro-3-methylazetidin-1-yl)pyrimidine], the IC50 was determined as 0.26 µM.

`Fc1ccc(-n2cc(COc3ncc(N4CC(C(F)F)C4)cn3)nn2)cc1C(F)F` [Example 421, 2-((1-(3-(Difluoromethyl)-4-fluorophenyl)-1H-1,2,3-triazol-4-yl)methoxy)-5-(3-(difluoromethyl)azetidin-1-yl)pyrimidine]: the concentration for half-maximal inhibition (IC50) worked out at 0.227 µM.

As to `Fc1ccc(-n2cc(COc3ncc(N4CCC(F)(F)C4)cn3)nn2)cc1C(F)F` [Example 422, 2-((1-(3-(Difluoromethyl)-4-fluorophenyl)-1H-1,2,3-triazol-4-yl)methoxy)-5-(3,3-difluoropyrrolidin-1-yl)pyrimidine], the IC50 is 0.068 µM.

For the compound `Fc1ccc(-n2cc(COc3ncc(C4CC4)cn3)nn2)cc1C(F)F` [Example 423, 5-Cyclopropyl-2-[[1-[3-(difluoromethyl)-4-fluoro-phenyl]triazol-4-yl]methoxy]pyrimidine], the 50% inhibitory concentration (IC50) came to 0.005 µM.

The assay is the same for the next values; noted with them: standard assay; human GluN1/GluN2B, calcium flux (FLIPR), glutamate ~EC80.
For the compound `Nc1ccnc(OCc2cn(-c3ccc(Cl)c(OC(F)F)c3)nn2)n1` [Example 382, 2-((1-(4-chloro-3-(difluoromethoxy)phenyl)-1H-1,2,3-triazol-4-yl)methoxy)pyrimidin-4-amine], the 50% inhibitory concentration (IC50) came out at 0.021 µM.

Regarding `OCc1ccnc(OCc2cn(-c3ccc(Cl)c(OC(F)F)c3)nn2)n1` [Example 383, [2-[[1-[4-Chloro-3-(difluoromethoxy)phenyl]triazol-4-yl]methoxy]pyrimidin-4-yl]methanol], the IC50 amounted to 0.008 µM.

Regarding `COCc1ccnc(OCc2cn(-c3ccc(Cl)c(OC(F)F)c3)nn2)n1` [Example 384, 2-[[1-[4-Chloro-3-(difluoromethoxy)phenyl]triazol-4-yl]methoxy]-4-(methoxymethyl)pyrimidine], the half-inhibitory concentration (IC50) was 0.018 µM.

On to `CC(C)(O)c1cnc(OCc2cn(-c3ccc(Cl)c(OC(F)F)c3)nn2)nc1` [Example 385, 2-[2-[[1-[4-Chloro-3-(difluoromethoxy)phenyl]triazol-4-yl]methoxy]pyrimidin-5-yl]propan-2-ol], for which the 50% inhibitory concentration (IC50) is 0.028 µM.

Turning to `CC(C)Oc1ccnc(OCc2cn(-c3ccc(Cl)c(OC(F)F)c3)nn2)n1` [Example 386, 2-((1-(4-Chloro-3-(difluoromethoxy)phenyl)-1H-1,2,3-triazol-4-yl)methoxy)-4-isopropoxypyrimidine], the IC50 came out at 0.504 µM.

As for `COC(=O)c1ccnc(OCc2cn(-c3ccc(Cl)c(OC(F)F)c3)nn2)n1` [Example 387, Methyl 2-((1-(4-chloro-3-(difluoromethoxy)phenyl)-1H-1,2,3-triazol-4-yl)methoxy)pyrimidine-4-carboxylate], the concentration for half-maximal inhibition (IC50) turned out to be 0.068 µM.

In the case of `Fc1cnc(OCc2cn(-c3ccc(Cl)c(OC(F)F)c3)nn2)nc1NCC(F)F` [Example 388, 2-[[1-[4-Chloro-3-(difluoromethoxy)phenyl]triazol-4-yl]methoxy]-N-(2,2-difluoroethyl)-5-fluoro-pyrimidin-4-amine], the concentration for half-maximal inhibition (IC50) was determined as 0.842 µM.

For `CNc1nc(OCc2cn(-c3ccc(Cl)c(OC(F)F)c3)nn2)ncc1F` [Example 389, 2-[[1-[4-Chloro-3-(difluoromethoxy)phenyl]triazol-4-yl]methoxy]-5-fluoro-N-methyl-pyrimidin-4-amine], the concentration for half-maximal inhibition (IC50) is 0.033 µM.

In the case of `Nc1nc(OCc2cn(-c3ccc(Cl)c(OC(F)F)c3)nn2)ncc1F` [Example 390, 2-((1-(4-Chloro-3-(difluoromethoxy)phenyl)-1H-1,2,3-triazol-4-yl)methoxy)-5-fluoropyrimidin-4-amine], the half-maximal inhibitory concentration (IC50) came to 0.006 µM.

As to `FC(F)Oc1cc(-n2cc(COc3ncc(N4CCC4)cn3)nn2)ccc1Cl` [Example 391, 5-(Azetidin-1-yl)-2-((1-(4-chloro-3-(difluoromethoxy)phenyl)-1H-1,2,3-triazol-4-yl)methoxy)pyrimidine], the IC50 turned out to be 0.022 µM.

As a reminder, the IC50 is the concentration at which inhibition is half-maximal.

Source of the values: US10233173B2, “Substituted 1,2,3-triazoles as NR2B-selective NMDA modulators” (JANSSEN PHARMACEUTICA NV, priority 2016, dated 2019).
